ChEMBL document CHEMBL3638719, “Carbazole and carboline kinase inhibitors” (2014)

Biological target: Tyrosine-protein kinase JAK2 (Homo sapiens, UniProt O60674)
Assay: Tyrosine Kinase Assay: The assays were performed in V-bottom 384-well plates. […] The reaction was initiated by the combination of JAK2 with substrates and test compounds. The reaction was incubated at room temperature for 60 min. and terminated by adding 45 ul of 35 mM EDTA to each sample. The reaction mixture was analyzed on the Caliper LABCHIP 3000 by electrophoretic separation of the fluorescent substrate and phosphorylated product.

Tyrosine-protein kinase JAK2, sequence (O60674 whole entry): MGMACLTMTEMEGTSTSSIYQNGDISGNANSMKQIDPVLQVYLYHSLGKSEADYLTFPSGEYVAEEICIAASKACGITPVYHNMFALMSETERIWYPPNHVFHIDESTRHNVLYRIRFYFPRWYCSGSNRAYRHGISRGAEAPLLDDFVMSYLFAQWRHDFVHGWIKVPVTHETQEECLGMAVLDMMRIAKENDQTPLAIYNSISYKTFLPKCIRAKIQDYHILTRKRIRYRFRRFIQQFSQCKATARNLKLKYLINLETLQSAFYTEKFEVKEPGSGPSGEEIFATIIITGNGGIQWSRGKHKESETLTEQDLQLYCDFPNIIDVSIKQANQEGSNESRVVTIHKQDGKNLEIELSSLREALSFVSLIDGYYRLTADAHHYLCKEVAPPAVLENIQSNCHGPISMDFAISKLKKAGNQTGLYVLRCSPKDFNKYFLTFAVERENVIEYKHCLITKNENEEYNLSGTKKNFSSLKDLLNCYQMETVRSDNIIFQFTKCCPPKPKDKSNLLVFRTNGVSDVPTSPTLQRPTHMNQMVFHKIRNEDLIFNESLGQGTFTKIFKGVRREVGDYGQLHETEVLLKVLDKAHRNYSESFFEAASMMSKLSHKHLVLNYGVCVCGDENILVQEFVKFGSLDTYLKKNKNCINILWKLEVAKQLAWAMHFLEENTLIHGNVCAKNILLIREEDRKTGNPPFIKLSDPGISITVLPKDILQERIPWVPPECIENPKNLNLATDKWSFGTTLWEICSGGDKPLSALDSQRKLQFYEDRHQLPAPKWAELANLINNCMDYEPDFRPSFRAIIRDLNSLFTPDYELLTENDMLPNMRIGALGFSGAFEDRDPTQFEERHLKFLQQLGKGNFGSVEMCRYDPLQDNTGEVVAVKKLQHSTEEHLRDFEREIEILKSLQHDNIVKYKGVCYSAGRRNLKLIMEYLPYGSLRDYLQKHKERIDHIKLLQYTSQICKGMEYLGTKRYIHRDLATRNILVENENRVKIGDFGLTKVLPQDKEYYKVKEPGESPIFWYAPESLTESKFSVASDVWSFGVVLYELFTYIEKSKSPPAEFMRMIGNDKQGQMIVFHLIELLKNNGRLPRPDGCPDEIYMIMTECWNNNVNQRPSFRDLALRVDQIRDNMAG

| IC50 [nM] | Compound |
| --- | --- |
| 160 | COc1cccc(-c2cc(C(N)=O)c3[nH]c4cc(NC(=O)OC(C)(C)C)ccc4c3c2)c1 |
| 1 | COc1ccc(-c2cc(C(N)=O)c3[nH]c4cc(C(=O)N5CCCC(C)(O)C5)ccc4c3c2)cc1F (configuration not stated) |
